# Measurements as given in US20130302909A1, “ASSESSMENT OF IGF-1 LEVELS IN HIV-INFECTED SUBJECTS AND USES THEREOF” (THERATECHNOLOGIES INC., priority 2011, published 2013).
# *: point of attachment. Hexenoyl(3E) = CC/C=C/CC(=O)*
# How the values were obtained:
# serum IGF-1 [1] = test: Serum IGF-1 SDS in HIV patients treated with ThGRF, combined phase 3 studies, extension phase (LIPO-010 Extension/CTR-1012); format: in vivo, human; conditions: for SDS >2 (%) / SDS >3 (%): HIV+ male normative ranges, percent of patients
# Source text: (§1) The IGF-1 normative ranges were derived from two phase 3 clinical studies of treatment with the GRF analog (hexenoyl trans-3)hGRF(1-44)NH2 (also referred to herein as “ThGRF” or “TH9507”). One phase 3 clinical study includes a main phase (6 months) and an extension phase (6 months) in one study (Lipo-010) and the second phase 3 clinical study includes two studies. CTR-1011 was the main phase (first 6 months) and CTR-1012 was the extension phase (last 6 months).
# (§2) The IGF-1 data at baseline of all male patients from studies Lipo-010 and CTR-1011 were combined. Loge transformation was applied. […] The level of IGF-1 in the serum samples was determined using a blocking RIA assay. The IGF-1 blocking RIA assay is a competitive binding radioimmunoassay. It utilizes rabbit polyclonal antisera specific for IGF-1 as the primary antibody and radioiodinated recombinant human IGF-1 as tracer. Serum IGF-1 is first separated from binding proteins by acid ethanol extraction. The extracts (controls and unknown/test samples) and standard are incubated with primary antibody and tracer. Free IGF-1 present in the extracts competes with and displaces the tracer from primary antibody. A second antibody specific for rabbit immunoglobulin is added to precipitate the immunocomplexes, which are then separated from free reactants by centrifugation. The amount of radioactivity present in the precipitated immunocomplex is measured with a gamma counter and is inversely related to the concentration of IGF-1 present in the sample. The amount of tracer bound to the immunocomplexes formed in the calibrator samples (purified recombinant human IGF-1) is used to establish a dose response standard curve from which the IGF-1 concentration of controls and unknown samples are back calculated.
# (§3) During clinical studies of the treatment of HIV subjects with ThGRF, initial analyses of IGF-I values of the HIV subjects was performed using a typical IGF-I determination, in which age- and gender-specific means and SD values were utilized for the calculation of the standard deviation scores (SDS). These values were derived from a relatively small cohort of healthy adults and were established assuming a Normal distribution (without any transformation of the measured IGF-1 values). As such, determination of the normative IGF-1 range was initially performed based on age- and gender-matched healthy (i.e., non-HIV) subjects, without any transformation of the measured raw IGF-1 values, referred to herein below as the “typical method” or “typical approach”.
# (§4) The IGF-1 SDS were recalculated based on the means and standard deviations calculated from HIV patients (from all male patients in the above-noted clinical studies at baseline per age group as presented in Table III above, assuming a Normal distribution). The results are presented in Table IV for the main phase and the extension phase.
# (§5) The calculations above (based on “healthy”, typical normative ranges or using normative ranges based on IGF-1 levels in HIV subjects) were all done assuming a Normal distribution of the IGF-1 levels. However, it was noted that the distribution of the IGF-1 levels at baseline for the patients in the phase 3 clinical studies is “Lognormal” rather than “Normal”. Thus, the means and standard deviations were recalculated using the natural log(loge or In) of IGF-1 and then calculated IGF-1 SDS using the lognormal scale, i.e. [(natural log IGF-1) minus (mean) divided by (standard deviation)]. The results using lognormal distributions are presented in Table V for the main phase and the extension phase. Importantly, the percent of patients at baseline and those treated with placebo is now much closer to expected and in addition, the % of ThGRF-treated patients being larger than +2 and +3 SDS using the lognormal distribution and the HIV population normative ranges are substantially lower than that seen using the uncorrected SDS calculators.
# serum IGF-1 [2] = test: Serum IGF-1 level and IGF-1 SDS in HIV patients treated with ThGRF, combined phase 3 studies, main phase (LIPO-010 Main/CTR-1011); format: in vivo, human; conditions: Week 26; for SDS >2 (%) / SDS >3 (%): HIV+ male normative ranges
# Source text: as §1, §2, §3, §4, §5
# [3] = Week 27, T-P group, Log-Normal distribution
# [4] = Week 27, T-P group, Normal distribution
# [5] = Week 27, T-T group, Log-Normal distribution
# [6] = Week 27, T-T group, Normal distribution
# [7] = Week 52, T-P group, Log-Normal distribution
# [8] = Week 52, T-P group, Normal distribution
# [9] = Week 52, T-T group, Log-Normal distribution
# [10] = Week 52, T-T group, Normal distribution
# [11] = Week 52, typical approach and healthy normative ranges
# [12] = 2 mg/day, Log-Normal distribution, percent of patients
# [13] = 2 mg/day, Normal distribution, percent of patients
# [14] = 2 mg/day, typical approach, percent of patients
substance,measurement,setting,value
(hexenoyl trans-3)hGRF(1-44)NH2 ({Hexenoyl(3E)}-YADAIFTNSYRKVLGQLSARKLLQDIMSRQQGESNQERGARARL-NH2) [ThGRF],SDS >2 (%),serum IGF-1 [1]; [3],28.8%
same,SDS >3 (%),serum IGF-1 [1]; [3],5.3%
same,SDS >2 (%),serum IGF-1 [1]; [4],40.2%
same,SDS >3 (%),serum IGF-1 [1]; [4],21.2%
same,SDS >2 (%),serum IGF-1 [1]; [5],32.6%
same,SDS >3 (%),serum IGF-1 [1]; [5],7.6%
same,SDS >2 (%),serum IGF-1 [1]; [6],44.5%
same,SDS >3 (%),serum IGF-1 [1]; [6],29.2%
same,SDS >2 (%),serum IGF-1 [1]; [7],0.0%
same,SDS >3 (%),serum IGF-1 [1]; [7],0.0%
same,SDS >2 (%),serum IGF-1 [1]; [8],1.1%
same,SDS >3 (%),serum IGF-1 [1]; [8],0.0%
same,SDS >2 (%),serum IGF-1 [1]; [9],19.5%
same,SDS >3 (%),serum IGF-1 [1]; [9],5.8%
same,SDS >2 (%),serum IGF-1 [1]; [10],27.9%
same,SDS >3 (%),serum IGF-1 [1]; [10],16.3%
same,ThGRF-treated patients larger than +2 SDS,serum IGF-1 [1]; [11],33.7%
same,ThGRF-treated patients larger than +3 SDS,serum IGF-1 [1]; [11],22.6%
same,SDS >2 (%),serum IGF-1 [2]; [12],30.1%
same,SDS >3 (%),serum IGF-1 [2]; [12],7.4%
same,SDS >2 (%),serum IGF-1 [2]; [13],41.2%
same,SDS >3 (%),serum IGF-1 [2]; [13],25.4%
same,IGF-1 SDS Mean (SD),"serum IGF-1 [2]; 2 mg/day, typical approach (healthy normative ranges, Normal distribution)",2.4 (2.85)
same,SDS >+2 (%),serum IGF-1 [2]; [14],47.4%
same,SDS >+3 (%),serum IGF-1 [2]; [14],35.6%
same,IGF-1 level Mean (SD),serum IGF-1 [2]; ThGRF 2 mg/day,262 (123.6) ng/ml
